Like-named read-outs stand apart in the source and are kept apart here. Blank lines part the entries; values can stand above or below the molecule they belong to.
Columns and labels:
recombinant human PIM1 = recombinant human PIM1 (Homo sapiens (Human), UniProt P11309); experiment: PIM-1 kinase activity in cell-free in vitro assay; format: biochemical; conditions: for inhibition at 0.5 µM: 500 nM compound, read-out: PIM-1: % inh 500 nM
[1] = test system: HCT-116 human colorectal carcinoma cells; experiment: Cell-proliferation assay using Alamar Blue dye; format: cell-based; conditions: Homo sapiens;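 note: cells exposed to compound for about 4 days, then Alamar Blue added and dye fluorescence read after about 4 h, compared with medium-only control wells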
Jurkat = experiment: Cell proliferation modulatory activity, Jurkat; format: cell-based; conditions: Homo sapiens
MV-4-11 = experiment: Cell proliferation modulatory activity, MV-4-11; format: cell-based; conditions: Homo sapiens, MV4-11
K-562 [2] = experiment: Cell proliferation modulatory activity, K-562; format: cell-based; conditions: Homo sapiens, K562
MDA MB231 = MDA MB231 IC50 (Table 46); format: cell-based; conditions: Homo sapiens, MDA-MB-231
K-562 [3] = experiment: K-562 IC50 (Table 46); format: cell-based; conditions: Homo sapiens, K562
MV-411 = MV-411 IC50 (Table 46); format: cell-based; conditions: Homo sapiens, MV4-11
[4] = test system: MiaPaca human pancreatic carcinoma cells; experiment: Cell-proliferation assay using Alamar Blue dye; format: cell-based; conditions: MIA PaCa-2
Procedure: (§1) A representative cell-proliferation assay protocol using Alamar Blue dye (stored at 4° C., use 20 ul per well) is described hereafter.
(§2) • a. Split and trypsinize cells. • b. Count cells using hemocytometer. • c. Plate 4,000-5,000 cells per well in 100 μl of medium and seed into a 96-well plate according to the following plate layout. Add cell culture medium only to wells B10 to B12. Wells B1 to B9 have cells but no compound added.
(§3) • d. Add 100 μl of 2× drug dilution to each well in a concentration shown in the plate layout above. At the same time, add 100 μl of media into the control wells (wells B10 to B12). Total volume is 200 μl/well. • e. Incubate four (4) days at 37° C., 5% CO2 in a humidified incubator. • f. Add 20 μl Alamar Blue reagent to each well. • g. Incubate for four (4) hours at 37° C., 5% CO2 in a humidified incubator. • h. Record fluorescence at an excitation wavelength of 544 nm and emission wavelength of 590 nm using a microplate reader.
(§4) In the assays, cells are cultured with a test compound for approximately four days, the dye then is added to the cells and fluorescence of […] dye is detected after approximately four hours. Different types of cells can be utilized in the assays (e.g., HCT-116 human colorectal carcinoma cells, PC-3 human prostatic cancer cells and MiaPaca human pancreatic carcinoma cells). Anti-proliferative effects of representative compounds are provided hereafter

PARP-HSA enzyme = PARP-HSA enzyme (Homo sapiens (Human), UniProt P09874); experiment: PARP assay (chemiluminescent PARP assay kit, Trevigen); format: biochemical
Procedure: Modulatory activity of compounds described herein was assessed in vitro in cell-free CK2 assays. Modulatory activity of compounds described herein also are assessed in vitro in cell-free PARP assays. These assays are described hereafter.
PARP assays are conducted using a chemiluminescent PARP assay kit (Trevigen). Briefly, reactions are performed in Histone-coated strip wells, by adding 10 microliters test compound dissolved in 1×PARP Buffer (prepared by mixing 20×PARP buffer diluted with high-purity water) and 15 microliters diluted PARP-HSA enzyme (diluted in 1×PARP buffer, 0.1 unit per well) to 25 microliters PARP cocktail (prepared from 10×PARP cocktail and 10× activated DNA, both 2.5 microliters per well and 20 microliters per well of 1×PARP buffer). The reactions are incubated at ambient temperature for 60 minutes, then the liquid was removed. After washing the wells four times with PBS (200 ul), 50 microliters of STREP-HRP (Horseradish Peroxidase) solution (diluted 500-fold in 1× Strep-Diluent) was added and the reactions were allowed to incubate for 30 minutes at ambient temperature. The liquid was removed and, after washing the wells four times with PBS (200 ul), 50 microliters each of PeroxyGlo A and B (Chemiluminescent Horseradish Peroxidase substrates) are added and the resulting chemiluminescence quantified on the SpectraMax M5 plate reader.

MDAMB231 = experiment: Cell-proliferation assay using Alamar Blue dye; format: cell-based; conditions: Homo sapiens, MDA-MB-231
Procedure: as §1
96-Well Plate Setup and Compound Treatment
as §2, §3, §4

recombinant human CK2 = recombinant human CK2 (Homo sapiens (Human), UniProt P68400); experiment: CK2 assay (cell-free, 33P-ATP filter plate); format: biochemical; conditions: 500 nM compound, cell-free; read-out: CK2: % inh 500 nM
[5] = HCT-116, read-out: HCT-116 (uM), cell proliferation modulatory activity, HCT-116, second column
[6] = HCT-116, HCT-116, second column, read-out: HCT-116 (uM), cell proliferation modulatory activity

Sequence of recombinant human PIM1 (P11309 whole entry): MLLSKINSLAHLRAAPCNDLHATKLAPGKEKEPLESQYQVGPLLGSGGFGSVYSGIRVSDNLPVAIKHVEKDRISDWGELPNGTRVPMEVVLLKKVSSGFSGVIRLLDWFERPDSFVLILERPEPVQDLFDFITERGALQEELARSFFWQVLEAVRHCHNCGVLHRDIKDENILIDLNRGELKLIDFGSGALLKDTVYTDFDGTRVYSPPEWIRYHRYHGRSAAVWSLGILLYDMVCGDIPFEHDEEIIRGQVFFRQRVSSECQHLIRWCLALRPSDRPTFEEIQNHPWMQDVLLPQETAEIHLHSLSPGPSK
Sequence of PARP-HSA enzyme (P09874 whole entry): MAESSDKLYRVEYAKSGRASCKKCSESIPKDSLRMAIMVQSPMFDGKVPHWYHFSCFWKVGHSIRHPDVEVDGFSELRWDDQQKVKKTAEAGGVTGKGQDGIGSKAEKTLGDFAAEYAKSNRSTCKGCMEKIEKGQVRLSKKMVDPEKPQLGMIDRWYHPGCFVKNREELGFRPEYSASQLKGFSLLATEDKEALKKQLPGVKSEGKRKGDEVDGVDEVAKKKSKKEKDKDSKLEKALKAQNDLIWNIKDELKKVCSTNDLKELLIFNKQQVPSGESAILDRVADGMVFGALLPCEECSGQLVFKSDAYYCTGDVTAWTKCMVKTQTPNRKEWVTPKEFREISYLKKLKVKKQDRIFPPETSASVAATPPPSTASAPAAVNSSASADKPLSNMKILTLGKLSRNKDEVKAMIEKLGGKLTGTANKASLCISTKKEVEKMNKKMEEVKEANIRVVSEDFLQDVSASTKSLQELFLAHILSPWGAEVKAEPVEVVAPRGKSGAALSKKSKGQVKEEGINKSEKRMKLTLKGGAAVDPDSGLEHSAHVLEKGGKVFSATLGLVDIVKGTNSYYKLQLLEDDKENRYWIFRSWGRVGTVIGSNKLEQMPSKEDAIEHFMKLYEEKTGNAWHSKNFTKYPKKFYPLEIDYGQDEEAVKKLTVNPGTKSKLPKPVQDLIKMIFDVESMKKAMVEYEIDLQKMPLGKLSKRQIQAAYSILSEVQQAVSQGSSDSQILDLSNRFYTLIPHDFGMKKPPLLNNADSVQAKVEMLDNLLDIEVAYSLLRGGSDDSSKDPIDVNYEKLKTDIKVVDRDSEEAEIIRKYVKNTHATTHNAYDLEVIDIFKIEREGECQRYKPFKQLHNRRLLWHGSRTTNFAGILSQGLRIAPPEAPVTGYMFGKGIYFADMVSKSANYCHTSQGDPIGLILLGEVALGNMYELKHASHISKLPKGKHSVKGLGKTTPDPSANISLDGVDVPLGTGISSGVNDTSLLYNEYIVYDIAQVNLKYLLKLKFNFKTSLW
Sequence of recombinant human CK2 (P68400 whole entry): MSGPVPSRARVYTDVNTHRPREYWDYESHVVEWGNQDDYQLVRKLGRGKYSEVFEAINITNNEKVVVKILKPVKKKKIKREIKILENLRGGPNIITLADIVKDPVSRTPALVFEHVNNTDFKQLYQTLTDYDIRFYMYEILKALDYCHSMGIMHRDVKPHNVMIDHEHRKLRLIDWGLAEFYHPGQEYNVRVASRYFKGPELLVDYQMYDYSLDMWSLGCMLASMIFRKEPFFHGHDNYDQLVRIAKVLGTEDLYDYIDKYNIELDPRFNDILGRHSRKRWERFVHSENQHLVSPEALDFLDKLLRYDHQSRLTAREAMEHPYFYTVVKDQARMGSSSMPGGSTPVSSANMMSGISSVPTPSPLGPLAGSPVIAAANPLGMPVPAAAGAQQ
Sequence of recombinant human CK2 (P67870 whole entry partner): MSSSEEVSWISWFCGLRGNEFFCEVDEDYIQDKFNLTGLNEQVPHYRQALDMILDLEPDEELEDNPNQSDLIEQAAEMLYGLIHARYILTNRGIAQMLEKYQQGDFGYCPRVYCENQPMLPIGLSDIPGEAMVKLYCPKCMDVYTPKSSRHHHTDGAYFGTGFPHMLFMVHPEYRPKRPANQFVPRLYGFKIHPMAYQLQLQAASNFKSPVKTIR

inhibition at 0.5 µM (recombinant human PIM1; cell-free): 67.1%
IC50 [1, 5]: 8.76 µM
IC50 (Jurkat): 4.31 µM
Structure (SMILES): O=C(O)c1ccc2c(c1)nc(Nc1cc(Cl)cc(Cl)c1)c1ccsc12

inhibition at 0.5 µM (recombinant human PIM1; cell-free): 20.8%
IC50 [1, 5]: 2.99 µM
IC50 (Jurkat): 0.728 µM
IC50 (MV-4-11): > 10 µM
Structure (SMILES): CNc1ncc2c(n1)c(Nc1ccccc1)nc1cc(C(=O)O)ccc12

inhibition at 0.5 µM (recombinant human PIM1; cell-free): 83%
IC50 (recombinant human PIM1; cell-free): 0.284 µM
IC50 [1, 5]: 6.72 µM
IC50 (Jurkat): 2.52 µM
IC50 (MV-4-11): 1.56 µM
IC50 (K-562 [2]): 8.65 µM
Structure (SMILES): O=C(O)c1ccc2c(c1)nc(Nc1ccc(Cl)cc1)c1ccncc12

IC50 (MDA MB231): < 1 µM
IC50 (recombinant human PIM1): < 0.1 µM
IC50 (K-562 [3]): < 0.5 µM
IC50 (MV-411): < 0.1 µM
IC50 [4]: < 1 µM
Structure (SMILES): COCCOc1ccc(Nc2nc3c(-c4nnc[nH]4)cccc3c3cnccc23)c(F)c1

IC50 (PARP-HSA enzyme; read-out: PARP Inhibition IC50): 0.8 µM
Structure (SMILES): COC(=O)c1ccc2c(c1)[nH]c(=O)c1ccncc12 [drawing 562]

PARP Inhibition (PARP-HSA enzyme; at 1 μM): 15% (at 1 μM)
Structure (SMILES): CN(C)CCNc1nc2cc(C(=O)O)ccc2c2ccccc12 [drawing 563]

IC50 (MDAMB231): > 50 µM
Structure (SMILES): CCOc1ncc2c(n1)c(NC1CC1)nc1cc(C(=O)O)ccc12 [drawing 1048]

IC50 (MDAMB231): 7.22 µM
Structure (SMILES): O=C(O)c1ccc2c(c1)nc(NC1CC1)c1nc(NC3CC3)ncc12 [drawing 1049]

IC50 (MDAMB231): 23.5 µM
Structure (SMILES): O=C(O)c1ccc2c(c1)nc(NC1CC1)c1nc(NCc3ccccc3)ncc12 [drawing 1050]

IC50 (MDAMB231): 6.88 µM
Structure (SMILES): O=C(O)c1ccc2c(c1)nc(NC1CC1)c1nc(Nc3ccccc3)ncc12 [drawing 1051]

IC50 (MDAMB231): > 50 µM
Structure (SMILES): O=C(O)c1ccc2c(c1)nc(Nc1cncc(C3CC3)c1)c1ccncc12 [drawing 1052]

IC50 (MDAMB231): > 50 µM
Structure (SMILES): O=C(O)c1ccc2c(c1)nc(NCc1cccnc1)c1nc(NC3CC3)ncc12 [drawing 1058]

IC50 (MDAMB231): > 50 µM
Structure (SMILES): O=C(O)c1ccc2c(c1)nc(NCc1ccccc1)c1nc(NC3CC3)ncc12 [drawing 1059]

IC50 (MDAMB231): > 50 µM
Structure (SMILES): O=C(O)c1ccc2c(c1)nc(N1CCOCC1)c1nc(NC3CC3)ncc12 [drawing 1060]

IC50 (MDAMB231): 9.66 µM
Structure (SMILES): CC1CCCCN1CCCNc1ncc2c(n1)c(Nc1ccc(F)c(Cl)c1)nc1cc(C(=O)O)ccc12 (stereo not shown) [drawing 1062]

IC50 (MDAMB231): > 50 µM
Structure (SMILES): Cc1cc(Nc2ncc3c(n2)c(Nc2ccc(F)c(Cl)c2)nc2cc(C(=O)O)ccc23)[nH]n1 [drawing 1068]

IC50 (MDAMB231): > 50 µM
Structure (SMILES): O=C(O)c1ccc2c(c1)nc(NC1CC1)c1ccncc12 [drawing 1072]

IC50 (MDAMB231): 34.2 µM
Structure (SMILES): COC(=O)c1ccc2c(c1)nc(NC1CC1)c1nc(SC)ncc12 [drawing 1074]

IC50 (MDAMB231): > 50 µM
Structure (SMILES): CN(C)CCNc1nc2cc(C(=O)O)ccc2c2cnc(NC3CC3)nc12 [drawing 1075]

IC50 (MDAMB231): > 50 µM
Structure (SMILES): Nc1ncc2c(n1)c(NC1CC1)nc1cc(C(=O)O)ccc12 [drawing 1077]

IC50 (MDAMB231): 4.36 µM
Structure (SMILES): CCCNc1ncc2c(n1)c(NC1CC1)nc1cc(C(=O)O)ccc12 [drawing 1078]

Structure (SMILES): O=C(O)c1ccc2c(c1)nc(Nc1cccc(Cl)c1)c1ccncc12 [drawing 1512]
inhibition at 0.5 µM (recombinant human CK2): 102%
inhibition at 0.5 µM (recombinant human PIM1; cell-free): 90%
IC50 [1, 6]: 5.09 µM
IC50 (Jurkat): 3.42 µM
IC50 (MV-4-11): 1.68 µM
IC50 (K-562 [2]): 4.39 µM

inhibition at 0.5 µM (recombinant human PIM1; cell-free): 65.9%
IC50 (recombinant human PIM1; cell-free): 0.306 µM
IC50 [1, 6]: 5.86 µM
IC50 (Jurkat): 3.34 µM
IC50 (MV-4-11): 0.464 µM
IC50 (K-562 [2]): 2.48 µM
Structure (SMILES): C#Cc1cccc(Nc2nc3cc(C(=O)O)ccc3c3cncnc23)c1 [drawing 1544]

inhibition at 0.5 µM (recombinant human PIM1; cell-free): 84.1%
IC50 (recombinant human PIM1; cell-free): 0.296 µM
IC50 (Jurkat): 2.78 µM
IC50 (MV-4-11): > 10 µM
IC50 (K-562 [2]): 3.33 µM
Structure (SMILES): C#Cc1cccc(Nc2nc3cc(C(=O)O)ccc3c3cnccc23)c1 [drawing 1555]
